From patent US6603046B1, “Bis-aromatic a,β-unsaturated ketones” (Lica Pharmaceuticals A/S, priority 1992, dated 2003)
Converted amounts (≈) assume the structure as drawn. “And” between values parts separate entries of the source, which are not always exact repeats. Identical values can stand only once.

What was measured:
P. yoelii strain YM = P. yoelii strain YM infection in mice, parasitemia and mortality (Example 16); type: in vivo, BALB/c mice; conditions: for % parasitemia, Mean: orally 100 mg/kg/dose 3 and 24 h after infection
Helicobacter pylori = assay: MIC on Helicobacter pylori, microaerophilic (Example 18); type: cell-based
Method: Bacteria. 16 recent clinical isolates of Helicobacter pylori from patients with duodenal ulcer or chronic gastritis. […] Staphylococcus aureus ATCC 25923 was used as control strain. The Helicobacter pylori strains were subcultured on chocolate agar plates with cysteine in a microaerophilic atmosphere at 37° C. for 72 hours and kept frozen at −80° C. until assayed. MIC determinations. Macrodilution rows were made with Helicomedia with 2 ml in all vials. […] All dilution rows were inoculated to give a final concentration of 10^5 CFU/ml. The MIC rows were incubated under microaerophilic conditions for […]. […] The control strain Staphylococcus aureus was incubated both aerobically and microaerophilically at 37° C. for 24 hours. All plates were read by the Karber method.

[1] = system: Staphylococcus aureus ATCC 25923; assay: MIC on control strain, aerobic and microaerophilic (Example 18); type: cell-based; conditions: ATCC25923, 2 h, 2 hours incubation
Method: Staphylococcus aureus ATCC 25923 was used as control strain. The Helicobacter pylori strains were subcultured on chocolate agar plates with cysteine in a microaerophilic atmosphere at 37° C. for 72 hours and kept frozen at −80° C. until assayed.
The MIC rows were incubated under microaerophilic conditions for two hours. Hereafter aliquots of 10 μl were taken from all dilution steps and plated on chocolate agar with cysteine and incubated in a microaerophilic atmosphere for 72 hours at 37° C. The control strain Staphylococcus aureus was incubated both aerobically and microaerophilically at 37° C. for 24 hours. All plates were read by the Karber method.

[2] = D + 11, 10 mg per kg twice daily days +1 to +4
[3] = D + 12, 10 mg per kg twice daily days +1 to +4
[4] = D + 12, i.p. 10 mg/kg twice daily D-1, D0
[5] = D + 14, i.p. 10 mg/kg twice daily D-1, D0
[6] = D + 15, 10 mg per kg twice daily days +1 to +4
[7] = D + 16, 10 mg per kg twice daily days +1 to +4
[8] = D + 16, i.p. 10 mg/kg four times daily D + 4 to D + 7
[9] = D + 16, i.p. 10 mg/kg twice daily D-1, D0
[10] = D + 17, 10 mg per kg twice daily days +1 to +4
[11] = D + 18, i.p. 10 mg/kg four times daily D + 4 to D + 7
[12] = D + 18, i.p. 10 mg/kg twice daily D-1, D0
[13] = D + 20, i.p. 10 mg/kg four times daily D + 4 to D + 7
[14] = D + 20, i.p. 10 mg/kg twice daily D-1, D0
[15] = Helicobacter pylori, 16 clinical isolates

C=CC(C)(C)c1cc(/C=C/C(=O)c2ccc(O)cc2)c(OC)cc1O [Licochalcone A, licochalcone A]
mortality (no. of dead mice/total no. of tested mice) (P. yoelii strain YM; D + 10, i.p. 10 mg/kg/day twice daily to D + 3): (1/5) | % parasitemia (mean ± SEM) (P. yoelii strain YM; D + 10, i.p. 10 mg/kg/day twice daily, 3 h after infection and D + 1 to D + 3): 48 ± 5.4% | mortality (no. of dead mice/total no. of tested mice) (P. yoelii strain YM; D + 10, i.p. 15 mg/kg/day twice daily to D + 3): (1/5) | % parasitemia (mean ± SEM) (P. yoelii strain YM; D + 10, i.p. 15 mg/kg/day twice daily, 3 h after infection and D + 1 to D + 3): 22 ± 11.6% | % parasitemia, Mean (P. yoelii strain YM; D + 10): 43% | Parasitemia, mean (P. yoelii strain YM; [2]): 37.0% | Parasitemia, single mice (P. yoelii strain YM; [2]): 33.0% and 41.0% | Parasitemia, single mice (P. yoelii strain YM; D + 11, 40 mg/kg/day in 2 injections, days +1 to +6, 40 mg/kg/day): 51.0% | Parasitemia, mean (P. yoelii strain YM; [3]): 74.0% | Parasitemia, single mice (P. yoelii strain YM; [3]): 80.0% and 68.0% | % parasitemia (mean ± SEM) (P. yoelii strain YM; D + 12, 10 mg/kg/day twice daily, 3 h after infection, D + 1 to D + 5): 14.4 ± 8.9% | % parasitemia (mean ± SEM) (P. yoelii strain YM; D + 12, 15 mg/kg/day twice daily, 3 h after infection, D + 1 to D + 5): 0% | mortality (no. of dead mice/total no. of tested mice) (P. yoelii strain YM; D + 12, i.p. 5 mg/kg/day twice daily to D + 3): (5/5) | % parasitemia (mean ± SEM) (P. yoelii strain YM; D + 12, i.p. 10 mg/kg four times daily D + 4 to D + 7): 50.4 ± 15.6% | % parasitemia (mean ± SEM) (P. yoelii strain YM; [4]): 55.7 ± 48.4% | mortality (no. of dead mice/total no. of tested mice) (P. yoelii strain YM; [4]): 2/5 | mortality (no. of dead mice/total no. of tested mice) (P. yoelii strain YM; D + 12, i.p. 10 mg/kg/day twice daily to D + 3): 4/5 | % parasitemia (mean ± SEM) (P. yoelii strain YM; D + 12, i.p. 10 mg/kg/day twice daily, 3 h after infection and D + 1 to D + 3): 82% | mortality (no. of dead mice/total no. of tested mice) (P. yoelii strain YM; D + 12, i.p. 15 mg/kg/day twice daily to D + 3): (1/5) | % parasitemia (mean ± SEM) (P. yoelii strain YM; D + 12, i.p. 15 mg/kg/day twice daily, 3 h after infection and D + 1 to D + 3): 4.8 ± 3.2% | Parasitemia, mean (P. yoelii strain YM; D + 13, 10 mg per kg twice daily days +1 to +4): 50.0% | % parasitemia, Mean (P. yoelii strain YM; D + 13): 6.5% | Parasitemia, mean (P. yoelii strain YM; D + 14, 10 mg per kg twice daily days +1 to +4): 35.0% | mortality (no. of dead mice/total no. of tested mice) (P. yoelii strain YM; D + 14, 10 mg/kg/day twice daily to D + 5): 1/5 | % parasitemia (mean ± SEM) (P. yoelii strain YM; D + 14, 10 mg/kg/day twice daily, 3 h after infection, D + 1 to D + 5): 17 ± 17% | % parasitemia (mean ± SEM) (P. yoelii strain YM; D + 14, 15 mg/kg/day twice daily, 3 h after infection, D + 1 to D + 5): 0% | % parasitemia (mean ± SEM) (P. yoelii strain YM; D + 14, i.p. 10 mg/kg four times daily D + 4 to D + 7): 58.6 ± 9.0% | % parasitemia (mean ± SEM) (P. yoelii strain YM; [5]): 0% | mortality (no. of dead mice/total no. of tested mice) (P. yoelii strain YM; [5]): 4/5 | mortality (no. of dead mice/total no. of tested mice) (P. yoelii strain YM; D + 14, i.p. 10 mg/kg/day twice daily to D + 3): (5/5) | mortality (no. of dead mice/total no. of tested mice) (P. yoelii strain YM; D + 14, i.p. 15 mg/kg/day twice daily to D + 3): 1/5 | % parasitemia (mean ± SEM) (P. yoelii strain YM; D + 14, i.p. 15 mg/kg/day twice daily, 3 h after infection and D + 1 to D + 3): 0% | Parasitemia, mean (P. yoelii strain YM; [6]): 2.0% | Parasitemia, single mice (P. yoelii strain YM; [6]): 2.0% | Parasitemia, mean (P. yoelii strain YM; [7]): 0.3% | Parasitemia, single mice (P. yoelii strain YM; [7]): 0.5% and 0.1% | mortality (no. of dead mice/total no. of tested mice) (P. yoelii strain YM; D + 16, 10 mg/kg/day twice daily to D + 5): 2/5 | % parasitemia (mean ± SEM) (P. yoelii strain YM; D + 16, 10 mg/kg/day twice daily, 3 h after infection, D + 1 to D + 5): 0% | % parasitemia (mean ± SEM) (P. yoelii strain YM; D + 16, 15 mg/kg/day twice daily, 3 h after infection, D + 1 to D + 5): 0% | % parasitemia (mean ± SEM) (P. yoelii strain YM; [8]): 75.8 ± 6.6% | mortality (no. of dead mice/total no. of tested mice) (P. yoelii strain YM; [8]): 1/5 | % parasitemia (mean ± SEM) (P. yoelii strain YM; [9]): 0% | mortality (no. of dead mice/total no. of tested mice) (P. yoelii strain YM; [9]): 4/5 | % parasitemia, Mean (P. yoelii strain YM; D + 16): 0% | Parasitemia, mean (P. yoelii strain YM; [10]): 0.0% | Parasitemia, single mice (P. yoelii strain YM; [10]): 0.0% | mortality (no. of dead mice/total no. of tested mice) (P. yoelii strain YM; D + 18, 10 mg/kg/day twice daily to D + 5): 2/5 | % parasitemia (mean ± SEM) (P. yoelii strain YM; D + 18, 10 mg/kg/day twice daily, 3 h after infection, D + 1 to D + 5): 0% | % parasitemia (mean ± SEM) (P. yoelii strain YM; D + 18, 15 mg/kg/day twice daily, 3 h after infection, D + 1 to D + 5): 0% | % parasitemia (mean ± SEM) (P. yoelii strain YM; [11]): 53 ± 25% | mortality (no. of dead mice/total no. of tested mice) (P. yoelii strain YM; [11]): 2/5 | % parasitemia (mean ± SEM) (P. yoelii strain YM; [12]): 0% | mortality (no. of dead mice/total no. of tested mice) (P. yoelii strain YM; [12]): 4/5 | % parasitemia (mean ± SEM) (P. yoelii strain YM; [13]): 19 ± 9.7% | mortality (no. of dead mice/total no. of tested mice) (P. yoelii strain YM; [13]): 3/5 | % parasitemia (mean ± SEM) (P. yoelii strain YM; [14]): 0% | mortality (no. of dead mice/total no. of tested mice) (P. yoelii strain YM; [14]): 4/5 | MIC Range (Helicobacter pylori; 16 clinical isolates): 16 to 125 µg/mL | MIC50 (Helicobacter pylori; [15]): 62 µg/mL (≈ 183 µM) | MIC90 (Helicobacter pylori; [15]): 125 µg/mL (≈ 369 µM) | MIC (Helicobacter pylori; Helicobacter pylori, read-out: MIC of the only strain with a low MIC): 16 µg/mL | MIC ([1]; microaerophilic conditions): > 500 µg/mL | MIC ([1]; normal atmosphere): 4 µg/mL (≈ 11.8 µM)
